The results in this text go back to PMC3653315 (Biomolecular NMR assignments, 2011).

In the experiment the target is Ssu72 (dSsu72) (Drosophila melanogaster, UniProt Q9VWE4). The note with it: 25 mM Tris-HCl, 25 mM KCl, 2 mM dithiothreitol, 5% D2O, 30 °C; phosphate up to 25:1 molar ratio; active site loop.
Sequence of Ssu72 (dSsu72) (Q9VWE4 1-195): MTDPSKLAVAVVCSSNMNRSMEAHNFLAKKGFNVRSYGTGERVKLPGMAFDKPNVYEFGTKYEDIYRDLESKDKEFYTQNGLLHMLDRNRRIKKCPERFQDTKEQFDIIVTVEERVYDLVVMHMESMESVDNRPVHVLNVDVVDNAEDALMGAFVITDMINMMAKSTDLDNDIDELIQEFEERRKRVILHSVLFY

Regarding `O=P(O)(O)O` [inorganic phosphate], the “NMR titration, 1H/15N-HSQC-TROSY chemical shift perturbation” value is recorded as “large number of significant perturbations upon titration of wild-type Ssu72 with inorganic phosphate”.
